The values below are quoted from earlier work in patent US12202907B2, “Nucleic acids encoding and methods of producing proteins comprising antibody chains” (Innate Pharma, priority 2018, dated 2025).

In the series the target is T1, CD39 (Homo sapiens, UniProt P49961).
T1 sequence (P49961 1-510): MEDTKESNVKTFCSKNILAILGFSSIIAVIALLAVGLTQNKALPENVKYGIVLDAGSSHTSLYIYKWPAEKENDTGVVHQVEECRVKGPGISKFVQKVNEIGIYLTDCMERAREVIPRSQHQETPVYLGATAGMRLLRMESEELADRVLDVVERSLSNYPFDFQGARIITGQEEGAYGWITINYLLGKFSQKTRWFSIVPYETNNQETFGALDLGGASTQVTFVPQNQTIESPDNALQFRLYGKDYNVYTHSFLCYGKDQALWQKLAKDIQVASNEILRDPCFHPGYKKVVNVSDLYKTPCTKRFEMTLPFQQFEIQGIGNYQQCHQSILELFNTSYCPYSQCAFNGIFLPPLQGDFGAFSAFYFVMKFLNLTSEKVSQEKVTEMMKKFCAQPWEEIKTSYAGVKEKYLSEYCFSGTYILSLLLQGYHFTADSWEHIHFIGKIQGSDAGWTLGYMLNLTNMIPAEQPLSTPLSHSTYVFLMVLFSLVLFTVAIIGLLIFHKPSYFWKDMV
The settings on record: Levesque et al. (2007); cited from earlier work.

For `CCN(CC)c1ncnc2c1ncn2[C@@H]1O[C@H](COP(=O)(O)OP(=O)(O)C(Br)(Br)P(=O)(O)O)[C@@H](O)[C@H]1O` [ARL67156], the “inhibition of CD39 (mode, strength)” value is recorded as “weak competitive inhibitor”.
